Experimental data as given in patent US20140371244A1, “METHOD FOR TREATING PROSTATE CANCER BY USE OF PHARMACEUTICAL COMPOSITION CONTAINING A3 ADENOSINE RECEPTOR AGONIST” (priority 2009, published 2014).

Key:
[1] = tested on: prostate cancer cell line PC-3; assay: Anticancer activity in PC-3 tumor-transplanted nude mice; type: in vivo; conditions: 2 mg/kg orally every day for 35 days
Method: Based on the anticancer activity of thio-Cl-IB-MECA against prostate cancer cells, proven by the in vitro test, the anticancer activity of thio-Cl-IB-MECA was measured by an animal test. The prostate cancer cell line PC-3 was transplanted subcutaneously into nude mice, and when the tumor size reached 150-200 mm^3 after 8 days, the drug thio-Cl-IB-MECA (0.02, 0.2 and 2 mg/kg), thio-IB-MECA (2 mg/kg) or IB-MECA (2 mg/kg) was administered orally every day for 35 days. The tumor size was measured at intervals of 3-5 days. The tumor volume was measured using the following equation 3.
Tumor volume=abc×π/6 [Equation 3]
wherein a represents the longer diameter of the tumor, b represents the shorter diameter of the tumor, and c represents the height of the tumor.

ICR white mice = assay: Animal toxicity test, single oral dose; type: in vivo; conditions: mouse, in vivo, po
Method: In order to examine the toxicities of thio-Cl-IB-MECA and thio-IB-MECA, each of the compounds was administered orally to ICR white mice (n=10, 25 g) at a dose of 1500 mg/kg weight, and the behavioral change and state of the mice were observed.

[2] = tested on: human colorectal cancer HCT 116 cells; assay: SRB assay, growth of HCT 116 cells; type: cell-based; conditions: 72 hours
Method: In order to compare the inhibitory effect of thio-Cl-IB-MECA of the present invention on the inhibition of human colorectal cancer HCT 116 cells with the effects of other A3 adenosine receptor agonists, IB-MECA and Cl-IB-MECA, a sulforhodamine B (SRB) assay was performed.
Specifically, 10 μL of a solution of thio-Cl-IB-MECA in 10% dimethylsulfoxide (DMSO) was loaded in each well of a 96-well plate in triplicate at concentrations of 100, 50, 25 and 12.5 μM, thus making a test plate. Cells were diluted to a density of 5×10^4 cells/ml with 10% FBS-containing RPMI 1640 medium supplemented with antibiotics-antimycotics, and 190 μL of the cell suspension was added to each well so as to reach a total volume of 200 μL and was cultured in a 5% CO2 incubator at 37° C. for 3 days. At the same time, 190 μL of the same cell suspension was loaded into each of 16 wells or more of a fresh 96-well plate containing no sample (thio-Cl-IB-MECA) and was cultured in a 5% CO2 incubator at 37° C. for 30 minutes, thereby determining reference date. After the culture, 50 μL of 50% trichloroacetic acid (TCA) was added to each well, and the cells were fixed by culture at 4° C. for 1 hour. Then, the well plate was washed five times with tap water and dried. 100 μL of a 1% acetic acid solution containing […] sulforhodamine B (SRB) was added to each well to stain the cells, and the well plate was allowed to stand at room temperature for 1 hour. After the well plate has been washed five times with 1% acetic acid and sufficiently dried, 200 μL of 100 mM Tris-base was added to each well, and the bound staining liquid was dissolved and sufficiently shaken in a shaker. Then, the absorbance at 515 nm was measured using an ELISA microplate reader. Based on the measured absorbance, the cell viability of the test group relative to the control group was calculated using equation 2 above. Based on the viability at each concentration, the IC50 value of the test sample was calculated using TableCurve program.
In the cases of IB-MECA or Cl-IB-MECA, the viability of cancer cells was examined in the same manner as the case of thio-Cl-IB-MECA.

[3] = tested on: human colorectal cancer HCT 116 cells; assay: Anticancer activity in nude mice transplanted with HCT 116 cells; type: in vivo, nude mice (Balb/c-nu/nu mice)
Method: HCT 116 cells were prepared at a concentration of 2×10^6 cells/200 μl (RPMI) and administered subcutaneously into the right frank of 6-week-old female nude mice (Balb/c-nu/nu mice). The tumor size was measured with calipers, and the tumor size reached about 100 mm^3, 20 mice having substantially the same tumor size were divided into a control group and three sample-treated groups. The three sample-treated group were administered orally with IB-MECA at doses of 0.02, 0.2 and 2 mg/kg, respectively, for 21 days. In the control group and the sample-treated groups, the bodyweight was measured once every week, and the tumor size was measured at intervals of 3-4 days. The tumor volume was measured using equation 3 above. In the equation, a represents the longer diameter of the tumor, b represents the shorter diameter of the tumor, and c represents the height of the tumor.
Anticancer activity was measured by an animal test in the same manner as Example 20, except that 6-week-old female nude mice were administered with Cl-IB-MECA in place of IB-MECA as a sample.
Anticancer activity was measured by an animal test in the same manner as Example 20, except that 6-week-old female nude mice were administered with thio-Cl-IB-MECA in place of IB-MECA as a sample.

Question: For CNC(=O)[C@H]1S[C@@H](n2cnc3c(NCc4cccc(I)c4)ncnc32)[C@H](O)[C@@H]1O [thio-IB-MECA, N^6-(3-iodobenzyl)-4′-thioadenosine-5′-N-methyluronamide], which “tumor production inhibitory activity relative to the control group” value [1] is on record?
Answer: about 53.6%

Question: What about the “maximum tolerance dose (MTD)” value (ICR white mice) of the same compound?
Answer: more than 1500 mg/kg

Question: And the “survival and side effects up to 7 days after administration” value (ICR white mice; 1500 mg/kg)?
Answer: survived healthfully without particular side effects

Question: Which “growth of HCT 116 cells” value ([2]; 100, 50, 25 and 12.5 μM) does the source give for CNC(=O)[C@H]1O[C@@H](n2cnc3c(NCc4cccc(I)c4)nc(Cl)nc32)[C@H](O)[C@@H]1O [Cl-IB-MECA] here?
Answer: concentration-dependently inhibited the growth

Question: What about the IC50 ([2]; SRB) of the same compound?
Answer: 19.3 µM

Question: What about the “inhibition rate of tumor growth” value ([3]; 0.02 mg/kg orally for 21 days) of the same compound?
Answer: 18.2%

Question: What about the “inhibition rate of tumor growth” value ([3]; 0.2 mg/kg orally for 21 days) of the same compound?
Answer: 43.8%

Question: What about the “inhibition rate of tumor growth” value ([3]; 2 mg/kg orally for 21 days) of the same compound?
Answer: 67.3%

Question: And the “side effects (such as a change in bodyweight) during the test period” value ([3]; 0.02, 0.2 and 2 mg/kg orally for 21 days)?
Answer: survived healthfully without particular side effects
